target: T1, human V1a receptor (Homo sapiens, UniProt P37288); experiment: V1a receptor binding study (3H-Vasopressin SPA, HEK293 membranes); conditions: membranes of HEK293 cells transiently transfected with human V1a receptor, Ki by Cheng-Prussoff equation, read-out: pKi hV1a (converted)
T1 construct: expressed in transfected cells; host or cells: HEK293 cells, transiently transfected; membranes prepared
Method: The human V1a receptor was cloned by RT-PCR from total human liver RNA. The coding sequence was subcloned in an expression vector after sequencing to confirm the identity of the amplified sequence. […] Cell membranes were prepared from HEK293 cells transiently transfected with the expression vector and grown in 20 liter fermenters with the following protocol.
50 g of cells were resuspended in 30 ml freshly prepared ice cold Lysis buffer (50 mM HEPES, 1 mM EDTA, 10 mM MgCl2 adjusted to pH=7.4+complete cocktail of protease inhibitor (Roche Diagnostics)); homogenized with Polytron for 1 min; and sonicated on ice for 2×2 minutes at 80% intensity (Vibracell sonicator). The preparation was centrifuged 20 min at 500 g at 4° C., the pellet was discarded and the supernatant centrifuged 1 hour at 43,000 g at 4° C. (19,000 rpm). The pellet was resuspended in 12.5 ml Lysis buffer+12.5 ml Sucrose 20% and homogenized using a Polytron for 1-2 min. The protein concentration was determined by the Bradford method and aliquots were stored at −80° C. until use. For binding studies 60 mg Yttrium silicate SPA beads (Amersham) were mixed with an aliquot of membrane in binding buffer (50 mM Tris, 120 mM NaCl, 5 mM KCl, 2 mM CaCl2, 10 mM MgCl2) for 15 minutes with mixing. 50 ul of bead/membrane mixture was then added to each well of a 96 well plate, followed by 50 ul of 4 nM 3H-Vasopressin (American Radiolabeled Chemicals). For total binding measurement 100 ul of binding buffer were added to the respective wells, for non-specific binding 100 ul of 8.4 mM cold vasopressin and for compound testing 100 ul of a serial dilution of each compound in 2% DMSO. The plate was incubated 1 h at room temperature, centrifuged 1 min at 1000 g and counted on a Packard Top-Count. Non-specific binding counts were subtracted from each well and data was normalized to the maximum specific binding set at 100%. To calculate an IC 50 the curve was fitted using a non-linear regression model (XLfit), and the Ki was calculated using the Cheng-Prussoff equation.

T1 sequence (P37288 whole entry): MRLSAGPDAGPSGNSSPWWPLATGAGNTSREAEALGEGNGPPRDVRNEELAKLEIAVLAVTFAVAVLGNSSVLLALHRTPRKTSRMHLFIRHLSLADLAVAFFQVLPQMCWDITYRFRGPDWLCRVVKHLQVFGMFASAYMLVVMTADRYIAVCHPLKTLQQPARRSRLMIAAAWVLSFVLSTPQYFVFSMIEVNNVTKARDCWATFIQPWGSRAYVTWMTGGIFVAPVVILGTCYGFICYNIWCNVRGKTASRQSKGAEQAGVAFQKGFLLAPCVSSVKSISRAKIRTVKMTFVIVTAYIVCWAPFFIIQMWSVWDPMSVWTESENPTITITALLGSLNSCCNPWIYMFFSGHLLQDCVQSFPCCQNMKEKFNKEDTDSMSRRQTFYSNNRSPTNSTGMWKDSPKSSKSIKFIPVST

Row | SMILES | Ki [nM]
1 | O=C(c1cc2ccccc2s1)N1CCC2(CC1)OCc1ccccc12 [Example 1, 1′-(1-Benzothien-2-ylcarbonyl)-3H-spiro[2-benzofuran-1,4′-piperidine]] | 25.1
2 | COc1ccc2c(c1)C1(CCN(C(=O)c3cc4cccnc4[nH]3)CC1)OC2=O [Example 14, 6-Methoxy-1′-(1H-pyrrolo[2,3-b]pyridin-2-ylcarbonyl)-3H-spiro[2-benzofuran-1,4′-piperidin]-3-one] | 200
3 | CC1=C(C(=O)N2CC[C@@]3(OC(=O)c4ccccc43)[C@@H](C)C2)Cc2ccccc21 (racemic) [Example 10, (1RS,3′SR)-3′-Methyl-1′-[(3-methyl-1H-inden-2-yl)carbonyl]-3H-spiro[2-benzofuran-1,4′-piperidin]-3-one] | 63.1
4 | CCc1cc(Br)cc2cc(C(=O)N3CCC4(CC3)OCc3ccccc34)oc12 [Example 6, 1′-[(5-Bromo-7-ethyl-1-benzofuran-2-yl)carbonyl]-3H-spiro[2-benzofuran-1,4′-piperidine]] | 50.1
5 | O=C(c1nc2cc(Cl)ccc2[nH]1)N1CCC2(CC1)OCc1ccccc12 [Example 9, 1′-[(5-Chloro-1H-benzimidazol-2-yl)carbonyl]-3H-spiro[2-benzofuran-1,4′-piperidine]] | 31.6
6 | COc1ccc2c(c1)CC(C(=O)N1CCC3(CC1)OCc1ccccc13)S2 (stereo not shown) [Example 4, 1′-[(5-Methoxy-2,3-dihydro-1-benzothien-2-yl)carbonyl]-3H-spiro[2-benzofuran-1,4′-piperidine]] | 63.1
7 | COc1cccc2cc(C(=O)N3CCC4(CC3)OCc3ccccc34)sc12 [Example 2, 1′-[(7-Methoxy-1-benzothien-2-yl)carbonyl]-3H-spiro[2-benzofuran-1,4′-piperidine]] | 50.1

— patent US7495008B2, “Spiro-piperidine derivatives” (Hoffmann-La Roche Inc., priority 2006, dated 2009)
